Results taken from ChEMBL document CHEMBL4673355, “Thiacalixarene based quaternary ammonium salts as promising antibacterial agents” (Bioorg Med Chem, 2021).
Where “and” joins values, the source holds several entries; their conditions need not be identical. Equal values may be shown once.

Key:
[1] = Selectivity index, ratio of CC50 for human HSF cells to MIC for Bacillus subtilis 168; format: toxicity
[2] = Selectivity index, ratio of CC50 for human HSF cells to MIC for Staphylococcus epidermidis; format: toxicity; conditions: for selectivity ratio: HSF cells
[3] = Selectivity index, ratio of CC50 for human HSF cells to MIC for Staphylococcus aureus ATCC 29213; format: toxicity
Bacillus subtilis = test: Bactericidal activity against Bacillus subtilis 168 assessed as reduction in bacterial growth incubated for 24 hrs followed by replating on MH broth and further incubated for 24 hrs by CLSI broth microdilution method; format: functional; conditions: Bacillus subtilis, 168, 24 h
[4] = test system: Staphylococcus epidermidis; test: Bactericidal activity against Staphylococcus epidermidis assessed as reduction in bacterial growth incubated for 24 hrs followed by replating on MH broth and further incubated for 24 hrs by CLSI broth microdilution method; format: functional
Staphylococcus aureus [5] = test: Bactericidal activity against Staphylococcus aureus ATCC 29213 assessed as reduction in bacterial growth incubated for 24 hrs followed by replating on MH broth and further incubated for 24 hrs by CLSI broth microdilution method; format: functional; conditions: time 48 hrs
Escherichia coli [6] = test: Antibacterial activity against Escherichia coli ATCC 25922 assessed as reduction in bacterial growth incubated for 24 hrs by CLSI broth microdilution method; format: functional
Pseudomonas aeruginosa [7] = test: Antibacterial activity against Pseudomonas aeruginosa ATCC 27853 assessed as reduction in bacterial growth incubated for 24 hrs by CLSI broth microdilution method; format: functional; conditions: Pseudomonas aeruginosa, ATCC 27853, 24 h, read-out: MIC
Staphylococcus aureus [8] = test: Antibacterial activity against Staphylococcus aureus ATCC 29213 by CLSI broth microdilution method; format: functional
Staphylococcus aureus [9] = test: Bactericidal activity against Staphylococcus aureus ATCC 29213; format: functional
Escherichia coli [10] = test: Bactericidal activity against Escherichia coli ATCC 25922; format: functional
Staphylococcus aureus [11] = test: Antibacterial activity against Staphylococcus aureus ATCC 6538 incubated for 24 hrs by CLSI broth microdilution method; format: functional
Klebsiella pneumoniae [12] = test: Antibacterial activity against Klebsiella pneumoniae ATCC 10031 assessed as reduction in bacterial growth incubated for 24 hrs by CLSI broth microdilution method; format: functional
Pseudomonas aeruginosa [13] = test: Antibacterial activity against Pseudomonas aeruginosa ATCC 9027 assessed as reduction in bacterial growth incubated for 24 hrs by CLSI broth microdilution method; format: functional
Proteus sp. = test: Antibacterial activity against […] resistant Proteus sp. clinical isolate 17 assessed as reduction in bacterial growth incubated for 24 hrs by CLSI broth microdilution method; format: functional; conditions: Proteus sp. (in: enterobacteria)
Klebsiella sp. [14] = test: Antibacterial activity against […] resistant Klebsiella sp. clinical isolate 12 assessed as reduction in bacterial growth incubated for 24 hrs by CLSI broth microdilution method; format: functional
Klebsiella sp. [15] = test: Antibacterial activity against […] resistant Klebsiella sp. clinical isolate 11 assessed as reduction in bacterial growth incubated for 24 hrs by CLSI broth microdilution method; format: functional
Pseudomonas = test: Antibacterial activity against methicillin- resistant Pseudomonas spp. clinical isolate 6 assessed as reduction in bacterial growth incubated for 24 hrs by CLSI broth microdilution method; format: functional
Acinetobacter [16] = test: Antibacterial activity against […] resistant Acinetobacter spp. clinical isolate 5 assessed as reduction in bacterial growth incubated for 24 hrs by CLSI broth microdilution method; format: functional
Acinetobacter [17] = test: Antibacterial activity against […] resistant Acinetobacter spp. clinical isolate 3 assessed as reduction in bacterial growth incubated for 24 hrs by CLSI broth microdilution method; format: functional
Acinetobacter [18] = test: Antibacterial activity against […] resistant Acinetobacter spp. clinical isolate 1 assessed as reduction in bacterial growth incubated for 24 hrs by CLSI broth microdilution method; format: functional
[19] = Antibacterial activity against […] resistant Moraxella sp.829 clinical isolate assessed as reduction in bacterial growth incubated for 24 hrs by CLSI broth microdilution method; format: functional; conditions: Moraxella catarrhalis
[20] = Antibacterial activity against […] resistant Moraxella sp.765 clinical isolate assessed as reduction in bacterial growth incubated for 24 hrs by CLSI broth microdilution method; format: functional; conditions: Moraxella catarrhalis
[21] = Antibacterial activity against […] resistant Moraxella sp.764 clinical isolate assessed as reduction in bacterial growth incubated for 24 hrs by CLSI broth microdilution method; format: functional; conditions: Moraxella catarrhalis
Staphylococcus aureus [22] = test: Antibacterial activity against methicillin- resistant Staphylococcus aureus 25 clinical isolate assessed as reduction in bacterial growth incubated for 24 hrs by CLSI broth microdilution method; format: functional
Staphylococcus aureus [23] = test: Antibacterial activity against methicillin- resistant Staphylococcus aureus 2020 clinical isolate assessed as reduction in bacterial growth incubated for 24 hrs by CLSI broth microdilution method; format: functional
[24] = test system: Staphylococcus intermedius; test: Antibacterial activity against methicillin- resistant Staphylococcus intermedius 1143 clinical isolate assessed as reduction in bacterial growth incubated for 24 hrs by CLSI broth microdilution method; format: functional
Staphylococcus aureus [25] = test: Antibacterial activity against methicillin- resistant Staphylococcus aureus 983 clinical isolate assessed as reduction in bacterial growth incubated for 24 hrs by CLSI broth microdilution method; format: functional
Staphylococcus aureus [26] = test: Antibacterial activity against methicillin- resistant Staphylococcus aureus 967 clinical isolate assessed as reduction in bacterial growth incubated for 24 hrs by CLSI broth microdilution method; format: functional
[27] = test system: Staphylococcus haemolyticus; test: Antibacterial activity against methicillin- resistant Staphylococcus haemolyticus 837 assessed as reduction in bacterial growth incubated for 24 hrs by CLSI broth microdilution method; format: functional
Klebsiella pneumoniae [28] = test: Bactericidal activity against Klebsiella pneumoniae ATCC 1813 assessed as reduction in bacterial growth incubated for 24 hrs followed by replating on MH broth and further incubated for 24 hrs by CLSI broth microdilution method; format: functional
Escherichia coli [29] = test: Bactericidal activity against Escherichia coli ATCC 25922 assessed as reduction in bacterial growth incubated for 24 hrs followed by replating on MH broth and further incubated for 24 hrs by CLSI broth microdilution method; format: functional
Staphylococcus aureus [30] = test: Antibacterial activity against Staphylococcus aureus ATCC 29213 assessed as reduction in bacterial growth incubated for 24 hrs by CLSI broth microdilution method; format: functional
[31] = test system: Staphylococcus epidermidis; test: Antibacterial activity against Staphylococcus epidermidis assessed as reduction in bacterial growth incubated for 24 hrs by CLSI broth microdilution method; format: functional
Klebsiella pneumoniae [32] = test: Antibacterial activity against Klebsiella pneumoniae ATCC 1813 assessed as reduction in bacterial growth incubated for 24 hrs by CLSI broth microdilution method; format: functional
[33] = Staphylococcus epidermidis, read-out: MBC
[34] = Staphylococcus aureus, ATCC 29213, read-out: MBC
[35] = Escherichia coli, ATCC 25922, 24 h, read-out: MIC

In the case of CCCC[N+](C)(C)CCCNC(=O)COc1c2cc(C(C)(C)C)cc1Sc1cc(C(C)(C)C)cc(c1OCC(=O)NCCC[N+](C)(C)CCCC)Sc1cc(C(C)(C)C)cc(c1OCC(=O)NCCC[N+](C)(C)CCCC)Sc1cc(C(C)(C)C)cc(c1OCC(=O)NCCC[N+](C)(C)CCCC)S2.[Cl-].[Cl-].[Cl-].[Cl-], the Ratio [1] is reported as 23 and 9, the Ratio [2] is reported as 19 and the selectivity ratio [2] is reported as 11. The Ratio [3] was 19, the selectivity ratio ([3]; HSF cells) was 11 and the MBC (Bacillus subtilis) was 16 mg/L. The MBC [4, 33] was 8 mg/L, the MBC (Staphylococcus aureus [5]; [34]) was 16 mg/L and the MIC (Escherichia coli [6]; 24 h) was 64 mg/L. The MIC (Escherichia coli [6]; [35]) was over 64 mg/L and the MIC (Pseudomonas aeruginosa [7]) was over 64 mg/L.

With CC(C)(C)c1cc2c(OCC(=O)NCCC[N+](C)(C)C)c(c1)Sc1cc(C(C)(C)C)cc(c1OCC(=O)NCCC[N+](C)(C)C)Sc1cc(C(C)(C)C)cc(c1OCC(=O)NCCC[N+](C)(C)C)Sc1cc(C(C)(C)C)cc(c1OCC(=O)NCCC[N+](C)(C)C)S2.[Cl-].[Cl-].[Cl-].[Cl-] the Ratio [1] was > 16 and 43, the Ratio [2] was 11 and the selectivity ratio [2] was over 16. It also gave an MBC (Bacillus subtilis) of 8 mg/L, an MBC [4, 33] of 32 mg/L and an MBC (Staphylococcus aureus [5]; [34]) of over 64 mg/L. The MIC (Escherichia coli [6]; [35]) was over 64 mg/L and the MIC (Pseudomonas aeruginosa [7]) was over 64 mg/L.

CCCCCCCCOc1c2cc(C[N+](C)(C)CCO)cc1Cc1cc(C[N+](C)(C)CCO)cc(c1OCCCCCCCC)Cc1cc(C[N+](C)(C)CCO)cc(c1OCCCCCCCC)Cc1cc(C[N+](C)(C)CCO)cc(c1OCCCCCCCC)C2.[Cl-].[Cl-].[Cl-].[Cl-] gave an MIC (Staphylococcus aureus [8]) of 16 mg/L, an MBC (Staphylococcus aureus [9]) of 16 mg/L and an MBC (Escherichia coli [10]) of 256 mg/L. It also gave an MIC (Staphylococcus aureus [11]) of over 1000 mg/L, an MIC (Escherichia coli [6]; [35]) of 32 mg/L and an MIC (Klebsiella pneumoniae [12]) of over 1000 mg/L. It also gave an MIC (Pseudomonas aeruginosa [13]) of 500 mg/L.

For CCCCCCCCOc1c2cc(C[n+]3ccn(C)c3)cc1Cc1cc(C[n+]3ccn(C)c3)cc(c1OCCCCCCCC)Cc1cc(C[n+]3ccn(C)c3)cc(c1OCCCCCCCC)Cc1cc(C[n+]3ccn(C)c3)cc(c1OCCCCCCCC)C2.[Cl-].[Cl-].[Cl-].[Cl-], the MIC (Staphylococcus aureus [11]) was over 1000 mg/L, the MIC (Escherichia coli [6]; [35]) was 1000 mg/L and the MIC (Klebsiella pneumoniae [12]) was over 1000 mg/L. For the same molecule, the MIC (Pseudomonas aeruginosa [13]) was 500 mg/L.

CC(C)(C)c1cc2c(OCC(=O)NCCC[N+](C)(C)Cc3ccccc3)c(c1)Sc1cc(C(C)(C)C)cc(c1OCC(=O)NCCC[N+](C)(C)Cc1ccccc1)Sc1cc(C(C)(C)C)cc(c1OCC(=O)NCCC[N+](C)(C)Cc1ccccc1)Sc1cc(C(C)(C)C)cc(c1OCC(=O)NCCC[N+](C)(C)Cc1ccccc1)S2.[Cl-].[Cl-].[Cl-].[Cl-] gave an MIC (Proteus sp.) of over 64 mg/L, an MIC (Klebsiella sp. [14]) of 64 mg/L and an MIC (Klebsiella sp. [15]) of over 64 mg/L. It also gave an MIC (Pseudomonas) of 64 mg/L, an MIC (Acinetobacter [16]) of 64 mg/L and an MIC (Acinetobacter [17]) of 64 mg/L. For the same molecule, the MIC (Acinetobacter [18]) was 64 mg/L, the MIC [19] was 64 mg/L and the MIC [20] was 64 mg/L. The MIC [21] was 64 mg/L, the MIC (Staphylococcus aureus [22]) was 16 mg/L and the MIC (Staphylococcus aureus [23]) was 64 mg/L. It also gave an MIC [24] of 16 mg/L, an MIC (Staphylococcus aureus [25]) of 64 mg/L and an MIC (Staphylococcus aureus [26]) of 64 mg/L. For the same molecule, the MIC [27] was 64 mg/L, the MBC (Klebsiella pneumoniae [28]) was 32 mg/L and the MBC (Escherichia coli [29]) was 64 mg/L. For the same molecule, the MBC [4] was 16 mg/L, the MBC [4, 33] was 32 mg/L and the MBC (Staphylococcus aureus [5]; [34]) was 64 mg/L. The MBC (Staphylococcus aureus [5]) was 64 mg/L, the MIC (Escherichia coli [6]; 24 h) was 32 mg/L and the MIC (Escherichia coli [6]; [35]) was over 64 mg/L. It also gave an MIC (Staphylococcus aureus [30]) of 4 mg/L, an MIC (Staphylococcus aureus [30]; Staphylococcus aureus, ATCC 29213, 24 h, read-out: MIC) of 4 mg/L and an MIC [31] of 2 mg/L. For the same molecule, the MIC ([31]; Staphylococcus epidermidis, read-out: MIC) was 4 mg/L, the MIC (Klebsiella pneumoniae [32]; 24 h) was over 64 mg/L and the MIC (Klebsiella pneumoniae [32]; Klebsiella pneumoniae, ATCC 1813, 24 h, read-out: MIC) was 32 mg/L. It also gave an MIC (Pseudomonas aeruginosa [7]) of over 64 mg/L.
